# Test results from patent US20250345314A1 (PUSAN NATIONAL UNIVERSITY INDUSTRY-UNIVERSITY COOPERATION …, priority 2024, published 2025).
# How the values were obtained:
# Type in all cases: cell-based
# [1] = test system: mesenchymal stem cells UCB #001, UCB #006, and UCB #192; test: PGE2 secretion of mesenchymal stem cells by ELISA; conditions: pirfenidone treatment
# Procedure: (§1) In addition, changes in HGF and PGE2 secretion in mesenchymal stem cells treated with rapamycin at various concentrations were analyzed by ELISA. The results of analyzing HGF and PGE2 secretion were shown in FIGS. 2B and 2C, respectively.
# (§2) The effects of pirfenidone, a drug used clinically as an anti-fibrotic drug, on the survival rate of mesenchymal stem cells and the secretion of HGF and PGE2 were confirmed in the same manner as rapamycin. The results of confirming the survival rate of mesenchymal stem cells according to pirfenidone treatment were shown in FIG. 3A, and the results of analyzing HGF and PGE2 secretion were shown in FIGS. 3B and 3C, respectively.
# [2] = test system: mesenchymal stem cells UCB #001, UCB #006, and UCB #192; test: HGF secretion of mesenchymal stem cells by ELISA
# Procedure: as §1, §2
# [3] = test system: mesenchymal stem cells UCB #001, UCB #006, and UCB #192; test: Cell viability of mesenchymal stem cells by CCK-8 assay
# Procedure: The effects of rapamycin on the survival rate of mesenchymal stem cells and the secretion of HGF and PGE2 were confirmed. Specifically, the mesenchymal stem cells UCB #001, UCB #006, and UCB #192 were treated with rapamycin at various concentrations of 1.25, 2.5, 5, 10, 20, 40, and 80 ng/ml for 24 hours.
# as §2
SMILES,PGE2 secretion [1],HGF secretion ([2]; pirfenidone 20 μg/ml),HGF secretion ([2]; pirfenidone 4 to 10 μg/ml),"cell viability ([3]; UCB #001, pirfenidone 1 to 6 μg/ml, CCK-8)","concentration at which cytotoxicity was exhibited ([3]; UCB #006 and UCB #192, CCK-8)","cell viability ([3]; UCB #006 and UCB #192, pirfenidone 1 to 10 μg/ml, CCK-8)","concentration at which cytotoxicity was exhibited ([3]; mesenchymal stem cells, 24 hours, CCK-8)"
Cc1ccc(=O)n(-c2ccccc2)c1 [pirfenidone],no significant change,reduced,did not affect,increased,≥ 20000 ng/mL,increased,
CO[C@H]1C[C@@H]2CC[C@@H](C)[C@@](O)(O2)C(=O)C(=O)N2CCCC[C@H]2C(=O)O[C@H]([C@H](C)C[C@@H]2CC[C@@H](O)[C@H](OC)C2)CC(=O)[C@H](C)/C=C(\C)[C@@H](O)[C@@H](OC)C(=O)[C@H](C)C[C@H](C)/C=C/C=C/C=C/1C [rapamycin],,,,,,,≥ 80 ng/mL
